Reference: patent EP0591582B1, “Hexahydrobenzo (f) quinolinones as 5-alpha-reductase inhibitors” (ELI LILLY AND COMPANY, priority 1992, dated 1994)

Target: T1, 5α-reductase (Homo sapiens, UniProt P18405)
T1 construct: host or cells: Hs68 human genital skin fibroblasts
T1 sequence (P18405 1-259): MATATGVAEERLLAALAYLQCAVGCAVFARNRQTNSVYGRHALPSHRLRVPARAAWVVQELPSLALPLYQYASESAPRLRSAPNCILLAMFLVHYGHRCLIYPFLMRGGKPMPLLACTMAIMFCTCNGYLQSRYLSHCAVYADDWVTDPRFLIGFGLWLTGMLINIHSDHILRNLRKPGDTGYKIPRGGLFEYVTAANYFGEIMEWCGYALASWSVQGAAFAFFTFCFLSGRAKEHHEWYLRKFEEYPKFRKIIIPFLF
Assay: 5α-Reductase activity (conversion of testosterone to DHT) in Hs68 human genital skin fibroblasts, TLC of radiolabelled steroids
Format: cell-based
Details: Concentration 0.316 mM; Hs68 cells, four hours incubation; 0 equals no activity, 100 equals total inhibition
Experimental: Cell Culture: 5α-Reductase activity was measured using Hs68 human genital skin fibroblasts which were originally purchased from the American Type Culture Collection(Rockville, MD). The cells were grown in Dulbecco's Modified Eagle's Medium (DMEM) plus 10% stripped fetal bovine serum which was supplemented with amphotericin B ([…]) and gentamicin ([…]) (GIBCO, Grand Island, NY). The serum was stripped of endogenous steroids by incubation with dextran-coated charcoal prior to its addition to the media. The cells were maintained at 37°C in an atmosphere of 95% air, 5% CO2 and were passaged every 7-10 days by exposure to a trypsin-EDTA solution (0.025% trypsin, 0.265 mM EDTA). Prior to the assay the Hs68 cells were harvested and plated in Falcon 6-well plates (Becton Dickinson Labware, Lincoln Park, NJ) at a density of 6 x 10^4 cells per well. The cells were allowed to grow for 4-5 days or until they reached approximately 80% confluence.
Assay Method I: The substrate was prepared by dissolving unlabeled testosterone (Sigma Chemical Co., St. Louis, MO) in absolute ethanol followed by the addition of [7-^3H (N)]-testosterone (23.3 Ci/mmole, New England Nuclear, Boston, MA). The steroid solution was taken to dryness under a stream of nitrogen and then reconstituted in media.
Assay Method II: The substrate used for this method was [^14C]-testosterone (50 mCi/mmol) (New England Nuclear, Boston, MA). An aliquot of the substrate was taken to dryness under a stream of nitrogen. After the addition of […] of ethanol, the testosterone was brought up in an appropriate volume of media.
Sample Preparation: The test compounds were dissolved in absolute ethanol in order to achieve the desired concentration. Subsequent dilutions of the test compounds with media were performed by the Biomek 1000 Automated Laboratory Workstation (Beckman Instruments, Palo Alto, CA). The existing media in the sample wells was aspirated and replaced with fresh media. Test compound was then added to the wells followed by the addition of 0.5 ml of the substrate. The volume of the incubation mixture was maintained at 2.0 ml. The final substrate concentration was […]. The concentration of the test compounds ranged from 0.001-15 mM. An additional three wells (background) containing media and substrate but no cells were also included to account for the non-enzymatic metabolism of the substrate. The plates were returned to the incubator and incubated for four hours.
At the end of the incubation the media was collected and transferred to an extraction tube containing 5 ml of toluene-ethanol (9:1), to which has been added […] each of unlabeled carrier steroids (estriol, estradiol, estrone, 5α-androstan-3α,17b-diol, 5α-androstan-3b,17b-diol, 4-androstene-3,17-dione, 5α-androstan-3,17-dione, testosterone, and 5α-dihydrotestosterone) (Steraloids, Inc. Wilton, NH). In the case of Assay Method I the extraction tube also contained 1,000 and 10,000 dpm of [4-^14C]-dihydrotestosterone(50-60 mCi/mmol) and [4-^14C]-testosterone (50 mCi/mmol) (New England Nuclear, Boston, MA), respectively. The [^14C]-steroids were included as recovery standards to quantify procedural losses. A small amount of NaCl was also added to the extraction tubes to prevent foaming. The samples were vortexed for approximately 30 seconds and then centrifuged for 10 minutes at 500 x g. The organic phase was collected and the samples taken to dryness, redissolved in dichloromethane-methanol (9:1) and were analyzed by thin layer chromatography using one of the methods described below.
Chromatography Method I (two-dimensional): The extracted samples were appled to silica gel 60F254, 0.25 mm thick, thin layer chromatography plates (EM Science, Cincinnati, OH). The plates were developed in the first dimension with a solvent system containing dichloromethaneethyl acetate-methanol-acetic acid (160:38:1.5:0.5, Mallinckrodt Inc., Paris, KY). […]

| SMILES | inhibition at 316 µM |
| --- | --- |
| O=C1CCC2=C(CCc3cc(Br)ccc32)N1 [Example 1, 8-bromo-1,2,3,4,5,6-hexahydrobenzo[f]quinolin-3-one] | 73% |
| O=C1CCC2=C(CCc3cc(Cl)c(Cl)cc32)N1 [Example 3, 8,9-dichloro-1,2,3,4,5,6-hexahydrobenzo[f]quinolin-3-one] | 85% |
| CC1(C)CC2=C(CCC(=O)N2)c2ccc(Br)cc21 [Example 14, 8-bromo-6,6-dimethyl-1,2,3,4,5,6-hexahydrobenzo[f]quinolin-3-one] | 30% |

Same assay, conditions: Concentration 3.16 mM; Hs68 cells, four hours incubation; 0 equals no activity, 100 equals total inhibition

| SMILES | inhibition at 3160 µM |
| --- | --- |
| CC(C)(C)c1ccc2c(c1)CCC1=C2CCC(=O)N1 [Example 15, 8-t-butyl-1,2,3,4,5,6-hexahydrobenzo[f]quinolin-3-one] | 30% |

Same assay, conditions: Concentration 10.0 mM; Hs68 cells, four hours incubation; 0 equals no activity, 100 equals total inhibition

| SMILES | inhibition at 10000 µM |
| --- | --- |
| CN1C(=O)CCC2=C1CCc1cc(Br)ccc12 [Example 2, 8-bromo-4-methyl-1,2,3,4,5,6-hexahydrobenzo-[f]quinolin-3-one] | 98% |
| CN1C(=O)CCC2=C1CCc1cc(Cl)ccc12 [Example 4, 8-chloro-4-methyl-1,2,3,4,5,6-hexahydrobenzo[f]quinolin-3-one] | 91% |
| Cc1ccc2c(c1)CCC1=C2CCC(=O)N1C [Example 5, 4,8-dimethyl-1,2,3,4,5,6-hexahydrobenzo[f]quinolin-3-one] | 100% |
| CN1C(=O)CCC2=C1CCc1cc(F)ccc12 [Example 6, 8-fluoro-4-methyl-1,2,3,4,5,6-hexahydrobenzo[f]quinolin-3-one] | 81% |

Other lines, results leading:

| inhibition at 10000 µM | SMILES |
| --- | --- |
| 63% | O=C1CCC2=C(CCc3ccccc32)N1 [Example 8, 1,2,3,4,5,6-hexahydrobenzo[f]quinolin-3-one] |
| 76% | O=C1CCC2=C(CCc3cc(F)ccc32)N1 [Example 9, 8-fluoro-1,2,3,4,5,6-hexahydrobenzo[f]quinolin-3-one] |
| 100% | Cc1ccc2c(c1)CCC1=C2CCC(=O)N1 [Example 13, 8-methyl-1,2,3,4,5,6-hexahydrobenzo[f]quinolin-3-one] |
| 56% | CCCCN1C(=O)CCC2=C1CCc1cc(F)ccc12 [Example 25, 8-fluoro-4-n-butyl-1,2,3,4,5,6-hexahydrobenzo[f]quinolin-3-one] |

Same assay, conditions: Concentration 1.0 (1.00) mM; Hs68 cells, four hours incubation; 0 equals no activity, 100 equals total inhibition

| SMILES | % Inhibition |
| --- | --- |
| O=C1CCC2=C(CCc3cccc(F)c32)N1 [Example 20, 10-fluoro-1,2,3,4,5,6-hexahydrobenzo[f]quinolin-3-one] | 22% |
